Data set [1] addresses T1, Receptor-type tyrosine-protein phosphatase C (Homo sapiens, UniProt P08575).
T1 sequence (P08575 whole entry): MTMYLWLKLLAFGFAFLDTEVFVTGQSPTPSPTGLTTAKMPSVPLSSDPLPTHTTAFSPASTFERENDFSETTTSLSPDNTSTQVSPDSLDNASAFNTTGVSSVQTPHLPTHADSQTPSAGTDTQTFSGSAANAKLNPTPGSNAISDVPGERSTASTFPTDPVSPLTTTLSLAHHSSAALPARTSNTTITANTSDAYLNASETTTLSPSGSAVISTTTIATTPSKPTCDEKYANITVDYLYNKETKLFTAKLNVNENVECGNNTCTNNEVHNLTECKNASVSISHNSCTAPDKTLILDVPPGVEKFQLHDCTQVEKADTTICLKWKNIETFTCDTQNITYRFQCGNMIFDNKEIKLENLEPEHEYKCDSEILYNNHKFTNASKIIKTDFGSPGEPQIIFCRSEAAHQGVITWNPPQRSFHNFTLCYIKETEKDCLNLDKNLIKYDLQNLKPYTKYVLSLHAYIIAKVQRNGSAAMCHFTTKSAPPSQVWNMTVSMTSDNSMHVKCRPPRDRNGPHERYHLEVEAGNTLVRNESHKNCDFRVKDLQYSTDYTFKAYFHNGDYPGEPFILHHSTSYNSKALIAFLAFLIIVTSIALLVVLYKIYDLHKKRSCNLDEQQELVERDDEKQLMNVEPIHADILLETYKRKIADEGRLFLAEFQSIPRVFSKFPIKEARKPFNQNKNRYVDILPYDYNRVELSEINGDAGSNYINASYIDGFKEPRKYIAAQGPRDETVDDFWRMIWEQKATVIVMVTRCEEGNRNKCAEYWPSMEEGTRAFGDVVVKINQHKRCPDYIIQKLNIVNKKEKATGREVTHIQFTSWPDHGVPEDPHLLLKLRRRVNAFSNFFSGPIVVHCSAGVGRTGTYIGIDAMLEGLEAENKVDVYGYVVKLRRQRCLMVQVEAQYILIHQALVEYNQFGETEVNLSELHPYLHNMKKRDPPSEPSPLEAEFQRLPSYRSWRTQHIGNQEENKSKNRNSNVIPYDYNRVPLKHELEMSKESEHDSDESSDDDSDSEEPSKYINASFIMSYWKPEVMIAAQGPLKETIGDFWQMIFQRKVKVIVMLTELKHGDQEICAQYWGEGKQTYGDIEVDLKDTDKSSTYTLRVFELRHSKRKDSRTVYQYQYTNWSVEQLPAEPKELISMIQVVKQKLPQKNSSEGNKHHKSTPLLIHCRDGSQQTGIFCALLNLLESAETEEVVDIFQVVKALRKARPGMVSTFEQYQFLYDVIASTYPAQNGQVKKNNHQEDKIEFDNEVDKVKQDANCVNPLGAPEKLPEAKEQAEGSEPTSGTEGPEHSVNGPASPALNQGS
Further details: species or system Escherichia coli.

The next data set addresses Cytochrome P450 2E1 (Homo sapiens, UniProt P05181). The note with it: bti-tn-5b1-4.
Another data set addresses T2, B2 bradykinin receptor (Homo sapiens, UniProt P30411).
T2 sequence (P30411 whole entry): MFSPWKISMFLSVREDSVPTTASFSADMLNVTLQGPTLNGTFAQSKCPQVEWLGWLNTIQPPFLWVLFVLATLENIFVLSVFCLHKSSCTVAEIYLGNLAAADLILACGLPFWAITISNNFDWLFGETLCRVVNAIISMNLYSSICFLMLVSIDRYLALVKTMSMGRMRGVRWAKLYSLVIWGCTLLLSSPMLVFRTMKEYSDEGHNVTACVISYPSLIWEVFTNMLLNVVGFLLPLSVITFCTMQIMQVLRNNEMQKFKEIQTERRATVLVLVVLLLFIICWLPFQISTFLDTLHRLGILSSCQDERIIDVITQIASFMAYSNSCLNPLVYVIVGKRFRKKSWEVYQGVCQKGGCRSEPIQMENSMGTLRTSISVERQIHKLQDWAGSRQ
It is filed as cell membranes, Membrane. The note with it: chem-1.

In data set [2] the target is 5-hydroxytryptamine receptor 4 (Cavia porcellus, UniProt O70528). It is filed as cell membranes, Dunkin-Hartley, Striatum, Membrane. Note: in other assays of this panel Not Active means under 50% inhibition at 10 µM.
5-hydroxytryptamine receptor 4, sequence (O70528 whole entry): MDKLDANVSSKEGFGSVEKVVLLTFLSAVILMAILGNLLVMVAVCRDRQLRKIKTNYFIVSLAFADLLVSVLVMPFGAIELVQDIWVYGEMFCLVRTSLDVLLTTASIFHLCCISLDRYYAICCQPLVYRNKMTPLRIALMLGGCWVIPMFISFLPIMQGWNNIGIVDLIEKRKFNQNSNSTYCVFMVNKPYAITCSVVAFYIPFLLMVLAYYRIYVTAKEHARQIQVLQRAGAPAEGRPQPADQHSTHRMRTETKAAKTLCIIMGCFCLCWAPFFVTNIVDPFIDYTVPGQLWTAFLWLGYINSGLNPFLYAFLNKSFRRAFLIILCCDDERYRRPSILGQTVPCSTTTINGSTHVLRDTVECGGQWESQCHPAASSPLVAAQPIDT
Data set [3] can be described thus: DRUGMATRIX: Calcium Channel Type L, Benzothiazepine radioligand binding (ligand: [3H] Diltiazem). The note with it: Not Active = under 50% inhibition at 10 µM. It is filed as cell membranes, Rattus norvegicus, Wistar, Brain, Membrane.
The target in data set [4] is Sodium-dependent dopamine transporter (Homo sapiens, UniProt Q01959). Kind of data set: DRUGMATRIX: Dopamine Transporter radioligand binding (ligand: [125I] RTI-55). It counts as cell membranes, CHO-K1, Membrane. The note with it: cho-k1; Not Active = under 50% inhibition at 10 µM.
Sodium-dependent dopamine transporter, sequence (Q01959 whole entry): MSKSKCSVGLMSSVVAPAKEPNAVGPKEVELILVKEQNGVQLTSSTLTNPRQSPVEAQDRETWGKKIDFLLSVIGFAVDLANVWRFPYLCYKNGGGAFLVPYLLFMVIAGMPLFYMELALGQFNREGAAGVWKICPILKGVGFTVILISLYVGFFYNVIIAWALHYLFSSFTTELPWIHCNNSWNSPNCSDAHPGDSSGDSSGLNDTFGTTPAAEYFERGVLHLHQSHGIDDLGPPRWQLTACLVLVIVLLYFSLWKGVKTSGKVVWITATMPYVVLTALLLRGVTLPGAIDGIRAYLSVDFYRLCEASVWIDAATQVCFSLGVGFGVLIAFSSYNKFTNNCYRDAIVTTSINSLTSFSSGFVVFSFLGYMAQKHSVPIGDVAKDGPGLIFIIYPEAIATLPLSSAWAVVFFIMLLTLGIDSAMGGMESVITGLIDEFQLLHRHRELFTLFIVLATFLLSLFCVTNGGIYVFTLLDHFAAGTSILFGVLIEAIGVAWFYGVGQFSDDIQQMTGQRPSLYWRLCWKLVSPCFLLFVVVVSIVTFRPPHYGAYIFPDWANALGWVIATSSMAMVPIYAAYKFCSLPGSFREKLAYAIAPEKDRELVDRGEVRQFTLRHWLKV
The target of data set [5] is T3, Muscarinic acetylcholine receptor M4 (Homo sapiens, UniProt P08173). Note: in other assays of this panel Not Active means under 50% inhibition at 10 µM.
T3 sequence (P08173 whole entry): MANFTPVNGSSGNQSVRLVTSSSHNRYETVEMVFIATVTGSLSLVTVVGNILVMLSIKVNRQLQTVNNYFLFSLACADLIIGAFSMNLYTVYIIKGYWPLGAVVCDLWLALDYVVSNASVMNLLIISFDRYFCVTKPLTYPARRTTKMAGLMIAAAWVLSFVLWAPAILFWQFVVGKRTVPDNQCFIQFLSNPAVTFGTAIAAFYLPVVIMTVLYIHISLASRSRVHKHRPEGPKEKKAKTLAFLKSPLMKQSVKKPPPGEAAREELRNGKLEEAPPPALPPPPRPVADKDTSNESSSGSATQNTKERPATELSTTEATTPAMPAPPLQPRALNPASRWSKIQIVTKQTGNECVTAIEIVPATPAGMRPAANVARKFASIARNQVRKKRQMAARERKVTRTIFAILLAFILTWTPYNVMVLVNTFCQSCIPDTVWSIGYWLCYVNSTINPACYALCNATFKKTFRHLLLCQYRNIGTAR
It is filed as cell membranes, CHO-K1, Membrane. The note with it: cho-k1.

Data set [6] concerns the target C-C chemokine receptor type 5 (Homo sapiens, UniProt P51681). It is filed as cell membranes, Membrane. The note with it: hek293. Note: in other assays of this panel Not Active means under 50% inhibition at 10 µM.
The target of another data set is Estrogen receptor beta (Homo sapiens, UniProt Q92731). The note with it: sf9. Note: in other assays of this panel Not Active means under 50% inhibition at 10 µM.
Estrogen receptor beta, sequence (Q92731 whole entry): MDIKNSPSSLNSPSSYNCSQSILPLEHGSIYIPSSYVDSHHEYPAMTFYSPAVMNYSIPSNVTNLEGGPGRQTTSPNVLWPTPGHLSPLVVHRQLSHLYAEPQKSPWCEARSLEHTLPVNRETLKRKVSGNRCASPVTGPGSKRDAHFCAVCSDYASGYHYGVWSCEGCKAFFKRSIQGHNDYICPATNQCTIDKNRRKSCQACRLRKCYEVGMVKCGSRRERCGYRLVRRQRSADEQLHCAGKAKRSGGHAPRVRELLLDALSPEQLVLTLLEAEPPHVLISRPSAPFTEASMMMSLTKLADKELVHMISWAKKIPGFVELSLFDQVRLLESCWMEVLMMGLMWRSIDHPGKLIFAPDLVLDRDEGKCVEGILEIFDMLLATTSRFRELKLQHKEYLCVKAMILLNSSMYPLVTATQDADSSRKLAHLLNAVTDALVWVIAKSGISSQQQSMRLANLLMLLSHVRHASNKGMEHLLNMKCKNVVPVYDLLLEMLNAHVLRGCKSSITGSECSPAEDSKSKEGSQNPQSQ
The target in data set [7] is Matrix metalloproteinase-9 (Homo sapiens, UniProt P14780). It counts as cell-based.
Matrix metalloproteinase-9, sequence (P14780 whole entry): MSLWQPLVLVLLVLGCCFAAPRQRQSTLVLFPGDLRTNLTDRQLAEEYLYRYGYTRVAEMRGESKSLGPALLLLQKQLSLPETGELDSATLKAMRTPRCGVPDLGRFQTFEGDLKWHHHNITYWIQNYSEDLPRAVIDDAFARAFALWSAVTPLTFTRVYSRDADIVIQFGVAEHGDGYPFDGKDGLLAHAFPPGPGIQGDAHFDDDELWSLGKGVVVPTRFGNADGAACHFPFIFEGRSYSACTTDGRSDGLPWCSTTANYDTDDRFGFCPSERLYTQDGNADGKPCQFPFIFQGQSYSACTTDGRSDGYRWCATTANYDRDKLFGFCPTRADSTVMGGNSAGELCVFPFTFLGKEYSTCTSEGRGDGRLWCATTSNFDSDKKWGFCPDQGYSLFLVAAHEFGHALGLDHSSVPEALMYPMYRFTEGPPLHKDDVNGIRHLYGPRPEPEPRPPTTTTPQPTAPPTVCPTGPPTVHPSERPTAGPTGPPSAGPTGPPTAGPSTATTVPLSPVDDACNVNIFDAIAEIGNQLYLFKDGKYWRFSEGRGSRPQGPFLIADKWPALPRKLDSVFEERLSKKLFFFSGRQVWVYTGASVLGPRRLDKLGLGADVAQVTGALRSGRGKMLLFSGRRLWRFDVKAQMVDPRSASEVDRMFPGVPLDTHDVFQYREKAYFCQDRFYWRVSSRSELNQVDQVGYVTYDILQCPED
Another data set deals with D(1A) dopamine receptor (Homo sapiens, UniProt P21728). The data set is described as follows: DRUGMATRIX: Dopamine D1 radioligand binding (ligand: [3H] SCH-23390). It is filed as cell membranes, CHO, Membrane. The note with it: cho; Not Active = under 50% inhibition at 10 µM.
D(1A) dopamine receptor, sequence (P21728 whole entry): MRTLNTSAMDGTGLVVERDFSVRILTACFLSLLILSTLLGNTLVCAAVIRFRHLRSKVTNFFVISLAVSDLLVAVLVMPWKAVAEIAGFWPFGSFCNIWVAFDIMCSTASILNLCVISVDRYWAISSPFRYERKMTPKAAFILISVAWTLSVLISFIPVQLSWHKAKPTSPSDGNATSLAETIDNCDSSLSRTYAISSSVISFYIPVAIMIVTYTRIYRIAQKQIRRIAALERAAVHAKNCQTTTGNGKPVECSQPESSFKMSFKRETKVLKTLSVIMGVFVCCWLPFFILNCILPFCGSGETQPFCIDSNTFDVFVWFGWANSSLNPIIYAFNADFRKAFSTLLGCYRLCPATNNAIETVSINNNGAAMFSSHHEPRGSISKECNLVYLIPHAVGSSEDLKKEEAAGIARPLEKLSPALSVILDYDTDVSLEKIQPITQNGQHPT
Data set [8] can be described thus: DRUGMATRIX: Glutamate, NMDA, Phencyclidine radioligand binding (ligand: [3H] TCP). It is filed as cell membranes, Rattus norvegicus, Wistar, Cerebral cortex, Membrane. The note with it: Not Active = under 50% inhibition at 10 µM.
Data set [9] concerns the target C-C chemokine receptor type 2 (Homo sapiens, UniProt P41597). It is filed as cell membranes, CHO-K1, Membrane. The note with it: cho-k1. Note: in other assays of this panel Not Active means under 50% inhibition at 10 µM.

C-C chemokine receptor type 5, sequence (P51681 whole entry): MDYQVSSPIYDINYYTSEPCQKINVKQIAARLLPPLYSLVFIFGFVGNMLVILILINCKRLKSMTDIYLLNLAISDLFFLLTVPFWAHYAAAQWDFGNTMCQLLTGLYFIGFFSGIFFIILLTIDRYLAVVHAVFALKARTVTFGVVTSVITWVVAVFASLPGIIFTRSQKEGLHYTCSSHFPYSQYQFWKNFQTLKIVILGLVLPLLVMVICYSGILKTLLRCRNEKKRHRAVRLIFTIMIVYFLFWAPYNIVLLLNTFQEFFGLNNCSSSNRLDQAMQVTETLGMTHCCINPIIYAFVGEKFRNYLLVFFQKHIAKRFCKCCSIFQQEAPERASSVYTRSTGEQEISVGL
Cytochrome P450 2E1, sequence (P05181 whole entry): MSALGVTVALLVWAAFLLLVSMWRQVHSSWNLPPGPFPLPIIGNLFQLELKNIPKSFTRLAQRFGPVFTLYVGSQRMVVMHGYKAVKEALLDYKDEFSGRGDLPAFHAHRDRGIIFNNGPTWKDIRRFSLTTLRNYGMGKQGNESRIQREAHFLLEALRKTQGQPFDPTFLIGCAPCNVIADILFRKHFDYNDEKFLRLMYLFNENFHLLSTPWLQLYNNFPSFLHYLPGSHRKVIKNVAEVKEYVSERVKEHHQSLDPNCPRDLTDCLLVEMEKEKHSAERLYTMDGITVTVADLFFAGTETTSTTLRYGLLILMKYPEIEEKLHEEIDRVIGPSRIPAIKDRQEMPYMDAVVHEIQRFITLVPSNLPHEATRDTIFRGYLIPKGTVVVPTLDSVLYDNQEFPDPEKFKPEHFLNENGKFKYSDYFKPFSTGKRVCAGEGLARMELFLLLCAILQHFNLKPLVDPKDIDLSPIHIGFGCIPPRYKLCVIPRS
C-C chemokine receptor type 2, sequence (P41597 whole entry): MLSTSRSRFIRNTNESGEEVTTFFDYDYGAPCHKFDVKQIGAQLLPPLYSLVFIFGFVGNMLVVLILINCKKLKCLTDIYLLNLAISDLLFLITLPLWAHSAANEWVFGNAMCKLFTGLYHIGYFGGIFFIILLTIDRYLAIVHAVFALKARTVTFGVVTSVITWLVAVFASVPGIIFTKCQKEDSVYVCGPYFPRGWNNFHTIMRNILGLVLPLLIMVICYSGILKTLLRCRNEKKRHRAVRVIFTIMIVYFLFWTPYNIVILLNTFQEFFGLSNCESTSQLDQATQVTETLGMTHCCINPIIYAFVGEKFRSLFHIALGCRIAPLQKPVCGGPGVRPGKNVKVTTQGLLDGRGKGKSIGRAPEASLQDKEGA

Consider `O=C1CCc2cc(OCCCCc3nnnn3C3CCCCC3)ccc2N1` [CILOSTAZOL], for which the IC50 result (in data set [1]; at Cytochrome P450 2E1; against B2 bradykinin receptor; in data set [2]; in data set [3]; in data set [4]) was “Not Active” each time. The IC50 result (in data set [5]; in data set [6]; on Estrogen receptor beta; in [7]; on D(1A) dopamine receptor; in data set [8]) was “Not Active” throughout. The concentration for half-maximal inhibition (IC50) entry in data set [9] is reported as “Not Active”. The Ki result (on Cytochrome P450 2E1; in [3]; in data set [8]) was “Not Active” in each case.

Turning to `O=C(O)c1cn(C2CC2)c2cc(N3CCNCC3)c(F)cc2c1=O` [CIPROFLOXACIN], the IC50 entry (in data set [1]; at Cytochrome P450 2E1; against B2 bradykinin receptor; in [2]; in [3]; in data set [4]) was “Not Active” each time. Besides, the IC50 result (in [5]; in [6]; on Estrogen receptor beta; in data set [7]; at D(1A) dopamine receptor; in [8]) was “Not Active” each time. Also, in data set [9], the IC50 result is given as “Not Active”. Besides, the Ki entry (at Cytochrome P450 2E1; in data set [3]; in [8]) was “Not Active” in each case.

As for `CN(C)CCCC1(c2ccc(F)cc2)OCc2cc(C#N)ccc21` (stereo unspecified) [CITALOPRAM], the IC50 entry in data set [1] is “Not Active”; against Cytochrome P450 2E1, “Not Active”; on B2 bradykinin receptor, “Not Active”; in data set [2], “Not Active”; in data set [3] (read-out: IC50) it was 1790 nM; in [4], “Not Active”. Also, the IC50 entry (in data set [5]; in data set [6]; against Estrogen receptor beta; in data set [7]; on D(1A) dopamine receptor; in [8]) was “Not Active” in each case. Further, the IC50 entry in [9] is “Not Active”. The Ki entry on Cytochrome P450 2E1 is “Not Active”; in data set [3] (read-out: Ki), 1590 nM; in data set [8], “Not Active”.

Turning to `COC(=O)[C@H](c1ccccc1Cl)N1CCc2sccc2C1` [CLOPIDOGREL], the concentration for half-maximal inhibition (IC50) entry (in data set [1]; at Cytochrome P450 2E1; against B2 bradykinin receptor; in data set [2]; in data set [3]; in data set [4]) was “Not Active” throughout. Also, the IC50 result (in data set [5]; in data set [6]; against Estrogen receptor beta; in data set [7]; at D(1A) dopamine receptor; in data set [8]) was “Not Active” throughout. Further, the IC50 result in [9] is recorded as “Not Active”. In addition, the Ki result (on Cytochrome P450 2E1; in [3]; in data set [8]) was “Not Active” each time.

On to `C[C@]12CCC(=O)C=C1CC[C@@H]1[C@@H]2C(=O)C[C@@]2(C)[C@H]1CC[C@]2(O)C(=O)CO` [CORTISONE], for which the IC50 result (in [1]; on Cytochrome P450 2E1; at B2 bradykinin receptor; in [2]; in [3]; in data set [4]) was “Not Active” in each case. The IC50 entry (in data set [5]; in data set [6]; at Estrogen receptor beta; in data set [7]; on D(1A) dopamine receptor; in data set [8]) was “Not Active” in each case. Also, in [9], the IC50 result was “Not Active”. In addition, the Ki result (on Cytochrome P450 2E1; in [3]; in data set [8]) was “Not Active” each time.

With `Cc1ccccc1N1CCN(CCc2nnc3n2CCCC3)CC1` [DAPIPRAZOLE], the half-inhibitory concentration (IC50) result (in data set [1]; at Cytochrome P450 2E1; on B2 bradykinin receptor; in data set [2]; in [3]; in data set [4]) was “Not Active” in each case. The IC50 result (in data set [5]; in data set [6]; at Estrogen receptor beta; in data set [7]; on D(1A) dopamine receptor; in data set [8]) was “Not Active” throughout. Also, the IC50 entry in [9] was “Not Active”. The inhibition constant Ki result (at Cytochrome P450 2E1; in [3]; in data set [8]) was “Not Active” throughout.
